{"source": "paper PMC9582160", "about": "“Inhibition of MRGPRX2 but not FcεRI or MrgprB2-mediated mast cell degranulation by a small molecule inverse receptor agonist” (Frontiers in Immunology, 2022)", "target": "T1, MrgprB2 (Mus musculus, UniProt Q3KNA1)", "T1 construct": "endogenous receptor in mouse peritoneal mast cells", "T1 sequence (Q3KNA1 1-338)": "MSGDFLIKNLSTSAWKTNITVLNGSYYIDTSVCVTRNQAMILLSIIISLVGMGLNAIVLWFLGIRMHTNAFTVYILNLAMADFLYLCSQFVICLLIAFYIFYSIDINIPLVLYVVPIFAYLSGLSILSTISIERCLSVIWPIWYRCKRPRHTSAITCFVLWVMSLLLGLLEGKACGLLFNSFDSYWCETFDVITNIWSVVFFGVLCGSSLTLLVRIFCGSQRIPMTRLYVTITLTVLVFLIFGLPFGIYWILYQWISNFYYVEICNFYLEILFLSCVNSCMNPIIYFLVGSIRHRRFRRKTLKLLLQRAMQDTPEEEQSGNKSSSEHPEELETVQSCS", "experiment": "agonist: β-hexosaminidase release in WT peritoneal mast cells at […], absent in MrgprB2-/- cells", "format": "cell-based", "data": [{"smiles": "C=CC[N+]1([C@H]2C[C@H]3[C@@H]4CC[C@H]5C[C@H](O)[C@@H](N6CCOCC6)C[C@]5(C)[C@H]4CC[C@]3(C)[C@H]2OC(C)=O)CCCC1", "note": "[rocuronium]", "values": [{"measurement": "agonist: β-hexosaminidase release in WT peritoneal mast cells at 20 μg/ml, absen", "value": "mediated via MrgprB2 by demonstrating that PMCs cultured from MrgprB2^−/− mice do not respond to these agonists"}]}]}
